Measurements published in article PMC3057995, “Potent Anti-Tumor Effect Generated by a Novel Human Papillomavirus (HPV) Antagonist Peptide Reactivating the pRb/E2F Pathway” (PLoS ONE, 2011).

How the values were obtained:
HPV16 E7 protein = settings: peptides 0.08 µM to 800 µM vs HPV16E7 mAb; mean ± SE, three independent experiments
Procedure: HPV16E7 mAb alone, incubated with the coated E7 protein, gave the benchmark absorption value. Absorbance values and inhibitory ratio were collected and calculated as outlined in Materials and Methods.
The specificity and affinity of the positive clones and synthetic peptides were determined by competitive ELISA. 400 ng/well HPV16 E7 protein was coated overnight in microtiter wells at 4°C. The positive clones or peptides at different concentrations mixed with HPV16E7 mAb were incubated with the coated E7 protein in microtiter wells for 3 h. The mixture at the same concentration of the library phage and HPV16E7 mAb was set as negative control. […] HPV16E7 mAb alone at the same concentration, incubated with the coated E7 protein, gave benchmark absorption. The inhibitory ratio was calculated by the following formula: Inhibitory ratio = 100%−(A450 of mixture well/A450 of mAb alone well)×100%.

HPV16 E7 = assay: Immunohistochemistry of tumor tissues, HPV16 E7; type: in vivo, mouse (Balb/C-nu/nu); settings: 400 µg/mouse group vs control
SiHa cells = assay: Clonogenic assay, SiHa; type: cell-based; settings: 14 days
Procedure: Cells were seeded in DMEM at 1×10^3 cells/well density in 12-well plates and allowed to attach to the substrate overnight. Thereafter, cells were treated with 0 µM, 16 µM, 32 µM, 80 µM, and 160 µM peptide in DMEM, and the medium was changed every three days. The plates were observed daily for colony formation. After 8 (for HeLa cells) or 14 (for SiHa and CaSki cells) days of treatment, the cultures were washed three times with PBS and stained with crystal violet in ethanol for 15 min. The colonies were then counted and photographed with the Alphalmager® EP image acquisition system (Alpha Innotech, Santa Clara, CA, USA).

[1] = test system: cyclin A, E1 and D1 promoters containing E2F binding sites; assay: Luciferase reporter assay, SiHa; type: cell-based; settings: 80 µM, 24 h
Procedure: SiHa cells were co-transfected with E2F-responsive luciferase reporter plasmids and siRNA of Rb, p130 and p107, respectively.
The cells were seeded in 12-well plate at a density of 3×10^5 cells/well. The following day, cells were transfected with SiRNA and luciferase reporter plasmids or siRNA alone, respectively, using LipofectAMINE 2000 as described in the manufacturer's protocol (Invitrogen, Carlsbad, CA, USA).
(§1) The reporter assays were performed using Bright-Glo™ Luciferase Assay System (Promega, Madison, WI, USA) according to the manufacturer's instructions. Briefly, cells were plated in 12-well plates at a density of 1.5×10^5 cells/well. The following day, cells were transfected with reporter constructs. […] Thereafter, cell lysates were collected for reporter assays. The luciferase reporter activity of each sample was normalized against the corresponding protein content prior to calculation of the fold induction value relative to the controls. Each sample was determined in triplicate. The results represent means ± SE from three experiment runs.

CaSki cells = assay: Western blot, CaSki; type: cell-based; settings: 80 µM, 48 h
Procedure: Western blotting was carried out as described previously, [50]. […] After another 48 h of treatment, the cells were lysed in lysis buffer (Beyotime Institute of Biotechnology, Jiangshu, China) containing PMSF (Sigma Chemical Co., St. Louis, MI, USA) for 30 min at 4°C. The lysate was then centrifuged for 20 min at 13,000 rpm and 4°C. The proteins were then separated through SDS-PAGE and transferred onto the PVDF membrane (Immobion®-P Transfer Membrane, Millipore Corp., Billerica, MA, USA). Membranes were blocked in a Tris-buffered saline with 0.1% Tween-20 (TBS-T) solution with 5% nonfat dry milk and incubated overnight with primary antibodies at 4°C. The immunoreactive signals were detected by HRP-conjugated secondary antibodies (KPL, Gaithersburg, MD, USA) followed by SuperSignal® West Pico Chemiluminescent Substrate (Thermo Scientific, Milford, MA, USA.). Anti-β-actin antibodies were used to control protein loading. For the in vivo studies, tumors were harvested, and the cell lysates were prepared and transferred to a clean Eppendorf tube and centrifuged for 30 min at 14,000 rpm. The supernate was probed by western blotting, as described above.

pRb = pRb phosphorylation Western blot; type: cell-based; settings: SiHa, 80 µM, 24 h
[2] = test system: cyclin A, E1 and D1 promoters containing E2F binding sites; assay: Luciferase reporter assay, CaSki; type: cell-based; settings: 80 µM, 24 h, means ± SE, three experiments
Procedure: as §1

“SACPKGLDWCGG (C&C bridged by disulfide bonds) (disulfide) [Pep-7]” was tested. Which “binding to HPV16 E7” value (HPV16 E7 protein) did it give?
Its value is “bound to HPV16 E7 with high affinity compared with the control peptide N-pep”.

And the “HPV16E7 protein level in tumor tissue” value (HPV16 E7)?
Its value is “decreased”.

And the colony formation (SiHa cells; 16-160 µM)?
Its colony formation is “inhibited”.

And the “concentration up to which colony number difference vs control became significant (p<0.02)” value (SiHa cells; vs 0 µM group, three independent experiments)?
The value was 32 µM.

What about the “activities of cyclin A, E1 and D1 promoters” value ([1]; means ± SE, three experiments) of the same sequence?
Its value is “remarkable down-regulation”.

And the “influence of p130 or p107 knock-down on Pep-7 suppression of promoters” value ([1]; p130 or p107 siRNA)?
The value was “did not affect the influence of Pep-7 on these promoters”.

And the “influence of pRb knock-down on Pep-7 suppression of promoters” value ([1]; pRb siRNA)?
Its value is “abrogated the suppression of cyclin A, E1 and D1 promoter activities by Pep-7”.

What about the HPV16E7 protein level (CaSki cells) of the same sequence?
The HPV16E7 protein level was “reduced”.

What about the “cyclins A, D1 and E1 protein expression” value (CaSki cells) of the same sequence?
The value was “significantly reduced”.

What about the pRb protein level (CaSki cells) of the same sequence?
Its pRb protein level is “increased”.

And the “phosphorylation of pRb” value (pRb)?
The value was “not affected significantly”.

And the “activities of cyclin A, E1 and D1 promoters” value [2]?
Its value is “remarkable down-regulation”.
